The conditions of series [1]: human.
Text: Potential human toxicity of 2,4,6-THBA can be related to its toxicity based on studies with Daphnia.
Another series has as its target CDK6 (Homo sapiens, UniProt Q00534). The following applies: cited from earlier work.
For series [2], the system named is Pseudokirchneriella subcapitata. The conditions noted are these: cited from earlier work.
Series [3] relates to Daphnia magna. The conditions noted are these: in vivo, 48 h.
Experimental: Toxicity is determined using a Daphnia magna mobility assay as described (Kamaya et al., 2005). Neonates (<24 h old) from 2-3-week-old mothers are placed in a 50 ml glass beaker containing 40 ml of a test solution. All experiments for exposure and controls without chemicals are made in four replicates and performed at 21±0.3° C. under 16 h light: 8 h dark photoperiod. Immobility is used as the endpoint for determining acute toxicity; the daphnids showing no movement within 15 s after gentle stirring are defined to be immobile. After 24 and 48 h, the number of immobile daphnids is recorded to determine the concentration able to achieve 50% immobilization and it is indicated as EC50. The EC50 values are calculated by Probit analyses (USEPA, 1993), based on nominal concentrations and compared to similar experiments using benzoic acid and 2,4,6-THBA.
In another series the target is CDK2 (Homo sapiens, UniProt P24941). The conditions noted are these: cited from earlier work.
For a further series, the target named is CDK4 (Homo sapiens, UniProt P11802). The following applies: cited from earlier work.
Sequence of CDK4 (P11802 whole entry): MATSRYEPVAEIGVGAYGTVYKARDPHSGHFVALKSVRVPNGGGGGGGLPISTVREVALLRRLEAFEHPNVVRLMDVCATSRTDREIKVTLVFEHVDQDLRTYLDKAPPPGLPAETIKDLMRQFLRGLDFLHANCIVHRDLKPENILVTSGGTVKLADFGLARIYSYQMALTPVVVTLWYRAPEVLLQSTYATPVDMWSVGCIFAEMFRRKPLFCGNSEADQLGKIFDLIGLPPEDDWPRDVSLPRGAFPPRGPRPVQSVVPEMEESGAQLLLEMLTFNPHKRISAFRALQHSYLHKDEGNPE
Sequence of CDK4 (P24385 whole entry partner): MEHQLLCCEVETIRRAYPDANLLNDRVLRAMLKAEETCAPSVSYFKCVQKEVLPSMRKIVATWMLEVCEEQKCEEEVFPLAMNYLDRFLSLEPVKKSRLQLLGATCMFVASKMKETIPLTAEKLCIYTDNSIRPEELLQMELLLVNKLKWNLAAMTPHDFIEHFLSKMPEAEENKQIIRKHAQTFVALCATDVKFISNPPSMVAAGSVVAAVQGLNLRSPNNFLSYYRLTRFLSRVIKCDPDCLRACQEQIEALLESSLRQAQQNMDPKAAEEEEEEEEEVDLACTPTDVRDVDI
Series [4] concerns Daphnia magna. The following applies: cited from earlier work.
The subject of a further series is HCT-116 human cells. The following applies: cited from earlier work.
Series [5] has as its system Pseudokirchneriella subcapitata. The following applies: 48 h.
Experimental: Toxicity is determined using green algae Pseudokirchneriella subcapitata growth rate assay as described (Lee and Chen, 2009). Algal inoculum are withdrawn from the chemostat operated under a steady state, and transferred into 300 mL BOD bottles, together with dilution water (with growth medium) and toxicants. The BOD bottles are filled completely, leaving no headspace. A water seal is provided to ensure a closed test environment. The bottles are then placed on an orbital shaker operated at 100 rpm. Temperature and light intensity are kept at 24±1©° C. and 65 microEm−2 s−1 (±10%), respectively. US EPA bottle medium, with no EDTA content is used for toxicity testing. A sample of lyophilized quercetin (10%)/PVP (90%) is resuspended in solution. Two response endpoints are used to evaluate the toxicity of the resuspended quercetin; the final yield and algal growth rate based on cell density counts. […] The initial inoculated cell density is 15,000 cells/mL and the duration of the test is 48 h.
For another series, the target named is CDK1 (Homo sapiens, UniProt P06493). The conditions noted are these: cited from earlier work.
Sequence of CDK1 (P06493 whole entry, species assumed): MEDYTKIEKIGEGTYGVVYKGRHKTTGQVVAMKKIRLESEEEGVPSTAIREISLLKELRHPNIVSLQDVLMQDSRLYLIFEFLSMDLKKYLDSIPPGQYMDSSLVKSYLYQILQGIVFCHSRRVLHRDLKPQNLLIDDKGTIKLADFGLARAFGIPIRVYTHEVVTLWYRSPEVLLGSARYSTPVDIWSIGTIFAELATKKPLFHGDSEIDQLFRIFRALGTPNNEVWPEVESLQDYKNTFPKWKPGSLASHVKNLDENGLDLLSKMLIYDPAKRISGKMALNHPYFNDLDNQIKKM
Sequence of CDK1 (P14635 whole entry partner, species assumed): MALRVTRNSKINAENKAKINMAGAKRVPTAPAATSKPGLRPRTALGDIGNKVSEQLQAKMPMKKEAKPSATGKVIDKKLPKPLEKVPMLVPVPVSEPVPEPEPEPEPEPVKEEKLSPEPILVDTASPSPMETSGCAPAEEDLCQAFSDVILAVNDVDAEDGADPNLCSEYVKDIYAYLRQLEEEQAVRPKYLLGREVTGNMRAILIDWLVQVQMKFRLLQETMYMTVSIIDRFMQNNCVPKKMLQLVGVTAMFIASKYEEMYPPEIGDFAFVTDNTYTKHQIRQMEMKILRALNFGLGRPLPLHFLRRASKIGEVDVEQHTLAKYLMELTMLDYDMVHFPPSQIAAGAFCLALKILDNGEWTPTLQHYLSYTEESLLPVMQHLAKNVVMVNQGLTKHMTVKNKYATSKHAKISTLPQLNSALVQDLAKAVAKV
The conditions of series [6]: human oral exposure; cited from earlier work.
The conditions of series [7]: humans, cited from earlier work.

Here are results for three compounds from patent publication US20200197354A1, “METHODS, COMPOSITIONS AND CONTAINERS FOR REDUCING SOLID FORM QUERCETIN DEGRADATION AND 2,4,6-TRIHYDROXYBENZOIC ACID TOXIC BYPRODUCT THEREOF” (PUBLIC JOINT STOCK COMPANY "SCIENTIFICINDUSTRIALCENTRE …, priority 2018, published 2020).

By EC50 is commonly meant the concentration at which the effect is half-maximal.

In brackets after ≈: the same amount, converted by molar mass.

Sequence of CDK6 (Q00534 whole entry): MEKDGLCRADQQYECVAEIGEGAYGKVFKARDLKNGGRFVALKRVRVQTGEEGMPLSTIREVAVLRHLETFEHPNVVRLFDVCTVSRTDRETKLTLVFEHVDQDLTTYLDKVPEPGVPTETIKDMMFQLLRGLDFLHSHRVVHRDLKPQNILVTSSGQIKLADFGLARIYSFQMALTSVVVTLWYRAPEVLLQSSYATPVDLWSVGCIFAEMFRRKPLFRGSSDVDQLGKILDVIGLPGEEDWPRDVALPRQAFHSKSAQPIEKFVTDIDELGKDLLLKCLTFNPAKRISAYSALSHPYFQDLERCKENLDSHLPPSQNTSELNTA
Sequence of CDK6 (P24385 whole entry partner): as the sequence (P24385 whole entry partner) above

In the case of `O=C(O)c1c(O)cc(O)cc1O` [2,4,6-THBA, 2,4,6-trihydroxybenzoic acid], in [1], the “RfD estimated from Daphnia EC50” value is on record as 0.02 mg/kg/day, the “RfD-based toxicity relative to benzoic acid” value was “more than 50 times” and the “RfD-based toxicity relative to quercetin” value was 700 times. At CDK6, the “inhibitory effect on CDK6” value was “strong inhibitory effect”. Besides, the “EC50, suppression of growth” value in [2] is 0.546 µg/mL. Further, the “toxicity relative to benzoic acid” value in the series on Daphnia magna [3] was “about 500 times”. The “inhibitory effect on CDK2” value on CDK2 is on record as “strong inhibitory effect”. Besides, the “inhibitory effect on CDK4” value at CDK4 was “strong inhibitory effect”. In addition, in the series on Daphnia magna [4], the “EC50 at 48 h, mobility assay” value was 1.7 µg/mL (≈ 9.99 µM) and the “LC50 in 48 h, immobilization test” value is 1.7 µg/mL (≈ 9.99 µM). For the same compound, the “cytotoxicity compared to other salicylic acid metabolites” value in the series with HCT-116 human cells is given as “more cytotoxic”. In addition, the “toxicity relative to benzoic acid and its other derivatives” value in series [5] is on record as 70 times. Moreover, the “inhibitory effect on CDK1” value on CDK1 is given as “strong inhibitory effect”.

As to `O=C(O)c1ccccc1` [benzoic acid], the “EC50, suppression of growth” value in series [2] is 36 µg/mL. In the series with Daphnia magna [4], the 50% effective concentration (EC50) at 48 h, mobility assay is 860 µg/mL (≈ 7040 µM). The “RfD / toxicity in humans” value in series [6] is given as 1 mg/kg/day.

Regarding `O=c1c(O)c(-c2ccc(O)c(O)c2)oc2cc(O)cc(O)c12` [quercetin, 2-(3,4-dihydroxyphenyl)-3,5,7-trihydroxy-4H-chromen-4-one], in [7] (after ingestion in foods or supplements), the elimination half-life was 1 to 2 h. In series [7], the bioavailability of quercetin is 0-50%. Besides, the “RfD / toxicity in humans” value in [6] is listed as “more than 15 mg/kg/day”.
